# From US11021481B2, “Substituted isoindolin-1-ones and 2,3-dihydro-1h-pyrrolo[3,4-c]pyridin-1-ones as HPK1 antagonists” (Nimbus Saturn, Inc., priority 2019, dated 2021)
# Where a name gives a salt, the structure may show the parent alone.
# Biological target: HPK1 (Homo sapiens (Human), UniProt Q92918)
# Experiment: HPK1 biochemical enzyme assay (microfluidic mobility shift assay)
# Details: 1.5 nM HPK1, ATP 1 mM final, 30 min preincubation, 60 min at RT, Caliper EZ Reader; read-out: HPK1 1000UMATP caliper IC50
# Method in brief: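 Mobility shift readout of HPK1 activity after a 60 min RT reaction with 1 mM ATP, 1 μM substrate and 5 mM MgCl2. Enzyme/substrate mix was first exposed to compounds for 30 min, using ten-point curves topping at 3 μM final.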
# Sequence of HPK1 (Q92918 whole entry): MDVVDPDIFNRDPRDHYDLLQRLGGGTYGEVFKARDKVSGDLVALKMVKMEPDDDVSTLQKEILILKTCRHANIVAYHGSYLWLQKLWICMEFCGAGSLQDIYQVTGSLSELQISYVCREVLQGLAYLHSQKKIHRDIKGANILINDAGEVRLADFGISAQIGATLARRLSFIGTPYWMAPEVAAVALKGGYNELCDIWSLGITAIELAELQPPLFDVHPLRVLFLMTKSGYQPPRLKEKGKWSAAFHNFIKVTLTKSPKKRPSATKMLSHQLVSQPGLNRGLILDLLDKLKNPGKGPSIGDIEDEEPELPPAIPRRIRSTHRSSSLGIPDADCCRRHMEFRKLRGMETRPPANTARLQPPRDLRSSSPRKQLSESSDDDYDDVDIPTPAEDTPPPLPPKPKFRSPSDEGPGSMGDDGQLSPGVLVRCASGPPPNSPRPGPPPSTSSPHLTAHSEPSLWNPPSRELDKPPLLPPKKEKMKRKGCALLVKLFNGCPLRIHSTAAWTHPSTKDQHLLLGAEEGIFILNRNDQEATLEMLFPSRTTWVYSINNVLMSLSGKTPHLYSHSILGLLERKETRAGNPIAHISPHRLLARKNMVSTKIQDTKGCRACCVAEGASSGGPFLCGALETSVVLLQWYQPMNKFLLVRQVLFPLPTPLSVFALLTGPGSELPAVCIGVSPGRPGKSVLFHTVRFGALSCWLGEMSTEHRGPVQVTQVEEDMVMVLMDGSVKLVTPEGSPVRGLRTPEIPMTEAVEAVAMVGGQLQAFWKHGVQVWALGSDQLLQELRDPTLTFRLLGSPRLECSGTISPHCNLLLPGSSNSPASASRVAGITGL
row,Molecule,IC50
1,"O=C1NCc2c(-c3cnc4cc(F)ccn34)ccc(Nc3ccc([C@@H]4CCOC4)c(CN4CCC[C@@H]4CO)n3)c21 [I-826, 4-(7-fluoroimidazo [1,2-a]pyridin-3-yl)-7-((6-(((R)-2-(hydroxymeth-yl)pyrrolidin-1-yl)methyl)-5-((S)-THF-3-yl)pyridin-2-yl)amino)isoin-dolin-1-one]",< 0.1 µM
2,"O=C1NCc2c(-c3cnc4cc(F)ccn34)ccc(Nc3ccc([C@@H]4CCOC4)c(CN4CCC[C@H]4CO)n3)c21 [I-828, 4-(7-fluoroimidazo [1,2-a]pyridin-3-yl)-7-((6-(((S)-2-(hydroxymeth-yl)pyrrolidin-1-yl)methyl)-5-((S)-THF-3-yl)pyridin-2-yl)amino)isoin-dolin-1-one]",< 0.1 µM
3,"Cn1ccc2c(-c3ncc(Nc4ccc([C@H]5CCOC5)c(CN)n4)c4c3CNC4=O)ccnc21 [I-829, (R)-7-((6-(aminomethyl)-5-(THF-3-yl)pyridin-2-yl)amino)-4-(1-methyl-1H-pyrrolo[2,3-b]pyridin-4-yl)-2,3-dihydro-1H-pyrrolo[3,4-c]pyridin-1-one]",< 0.1 µM
4,"COC1(c2ccc(Nc3ccc(-c4cnc5cc(F)ccn45)c4c3C(=O)NC4)nc2CN(C)C)CCOCC1 [I-830, 7-((6-((dimethylamino)-methyl)-5-(4-methoxytetra-hydro-2H-pyran-4-yl)pyridin-2-yl)amino)-4-(7-fluoroimidazo [1,2-a]pyridin-3-yl)isoindolin-1-one]",< 0.1 µM
5,COCC1(c2ccc(Nc3ccc(-c4cnc5cc(F)ccn45)c4c3C(=O)NC4)nc2CN(C)C)CCOCC1 [I-831],< 0.1 µM
6,"Cn1ccc2c(-c3ncc(Nc4ccc([C@@H]5CCOC5)c(CN)n4)c4c3CNC4=O)ccnc21 [I-836, (S)-7-((6-(aminomethyl)-5-(THF-3-yl)pyridin-2-yl)amino)-4-(1-methyl-1H-pyrrolo[2,3-b]pyridin-4-yl)-2,3-dihydro-1H-pyrrolo[3,4-c]pyridin-1-one]",< 0.1 µM
7,"COCC1(c2ccc(Nc3ccc(-c4cnc5cc(F)ccn45)c4c3C(=O)NC4)nc2CN(C)C)CCOC1 (stereo not drawn) [I-837, 7-((6-((dimethylamino)methyl)-5-(3-(methoxymethyl)tetrahydrofuran-3-yl)pyridin-2-yl)amino)-4-(7-fluoroimidazo[1,2-a]pyridin-3-yl)isoindolin-1-one]",< 0.1 µM
8,"CN(C)CCc1nc(Nc2ccc(-c3cnc4cc(F)ccn34)c3c2C(=O)NC3)ccc1N1CCOCC1 [I-840, 7-((6-(2-(dimethylami-no)ethyl)-5-morpholinopyridin-2-yl)amino)-4-(7-fluoroimidazo [1,2-a]pyridin-3-yl)isoindolin-1-one]",< 0.1 µM
9,"CN(C)[C@@H]1CCCc2ccc(Nc3ccc(-c4cnc5cc(F)ccn45)c4c3C(=O)NC4)nc21 [I-842, (R)-7-((8-(dimethylam-ino)-5,6,7,8-tetrahydroquin-olin-2-yl)amino)-4-(7-fluoroimidazo [1,2-a]pyridin-3-yl)isoindo1in-1-one]",< 0.1 µM
10,"CN(C)Cc1nc(Nc2ccc(-c3cnc4cc(F)ccn34)c3c2C(=O)NC3)ccc1C1(C)CCOC1 (stereo not drawn) [I-843, 7-((6-((dimethylamino)-methyl)-5-(3-methylTHF-3-yl)pyridin-2-yl)amino)-4-(7-fluoroimidazo [1,2-a]pyridin-3-yl)isoindolin-1-one]",< 0.1 µM
11,"CC(C)NCc1nc(Nc2cnc(-c3ccnc4c3ccn4C)c3c2C(=O)NC3)ccc1C1CCOCC1 [I-844, 7-[[6-[(isopropylamino)-methyl]-5-tetrahydropy-ran-4-yl-2-pyridyl]amino]-4-(1-methylpyrrolo [2,3-b]pyridin-4-yl)-2,3-dihydropyrrolo [3,4-c]pyridin-1-one Formic acid salt]",< 0.1 µM
12,"CN(C)Cc1cc(C2CCCO2)cc(Nc2ccc(-c3cnc4cc(F)ccn34)c3c2C(=O)NC3)n1 (stereo not drawn) [I-852, 7-((6-((dimethylamino)-methyl)-4-(tetrahydrofuran-2-yl)pyridin-2-yl)amino)-4-(7-fluoroimidazo [1,2-a]pyridin-3-yl)isoindolin-1-one Formate salt]",< 0.1 µM
13,"(R)-7-((5-(4-hydroxypiperidin-1-yl)pyridin-2-yl)amino)-3-methyl-4-(1-methyl-1H-pyrrolo[2,3-b]pyridin-4-yl)isoindolin-1-one [I-287]",< 0.1 µM
14,"(R)-7-((6- ((dimethylamino)- methyl)-5- (tetrahydrofuran- 3-yl)pyridin- 2-yl)amino)-4- (8-methylimidazo [1,2-a]pyridin- 3-yl)isoindolin- 1-one [I-696]",< 0.1 µM
15,"(R)-7-((6- ((dimethylamino)- methyl)-5-(2- (methoxymeth- yl)morpholino )pyridin-2- yl)amino)-4-(7- fluoroimidazo [1,2-a]pyridin- 3-yl)isoindolin- 1-one [I-711]",< 0.1 µM
16,"(S)-7-((5-(4-hydroxypiperidin-1-yl)pyridin-2-yl)amino)-3-methyl-4-(1-methyl-1H-pyrrolo[2,3-b]pyridin-4-yl)isoindolin-1-one [I-286]",> 1 µM
17,"(S)-7-((6- ((dimethylamino)- methyl)-5- (tetrahydrofuran- 3-yl)pyridin- 2-yl)amino)-4- (1-methyl-1H- indol-4-yl)- 2,3-dihydro- 1H-pyrrolo[3,4- c]pyridin-1-one [I-540]",< 0.1 µM

# Next, values leading:
row,IC50,Molecule
1,< 0.1 µM,"O=C1NCc2c(-c3cnc4cc(F)ccn34)ccc(Nc3ccc([C@H]4CCOC4)c(CN4CCC[C@@H]4CO)n3)c21 [I-825, 4-(7-fluoroimidazo [1,2-a]pyridin-3-yl)-7-((6-(((R)-2-(hydroxymeth-yl)pyrrolidin-1-yl]methyl)-5-((R)-THF-3-yl)pyridin-2-yl)amino)isoin-dolin-1-one]"
2,< 0.1 µM,"O=C1NCc2c(-c3cnc4cc(F)ccn34)ccc(Nc3ccc([C@H]4CCOC4)c(CN4CCC[C@H]4CO)n3)c21 [I-827, 4-(7-fluoroimidazo [1,2-a]pyridin-3-yl)-7-((6-(((S)-2-(hydroxymeth-yl)pyrrolidin-1-yl]methyl)-5-((R)-THF-3-yl)pyridin-2-yl)amino)isoin-dolin-1-one]"
3,0.1 to 1 µM,"CN(C)C(C)(C)c1nc(Nc2ccc(-c3cnc4cc(F)ccn34)c3c2C(=O)NC3)ccc1[C@H]1CCOC1 [I-832, (R)-7-((6-(2-(dimethylami-no)propan-2-yl)-5-(THF-3-yl)pyridin-2-yl)amino)-4-(7-fluoroimidazo [1,2-a]pyridin-3-yl)isoindolin-1-one]"
4,0.1 to 1 µM,"CN(C)C(C)(C)c1nc(Nc2ccc(-c3cnc4cc(F)ccn34)c3c2C(=O)NC3)ccc1[C@@H]1CCOC1 [I-833, (S)-7-((6-(2-(dimethylami-no)propan-2-yl)-5-(THF-3-yl)pyridin-2-yl)amino)-4-(7-fluoroimidazo [1,2-a]pyridin-3-yl)isoindolin-1-one]"
5,< 0.1 µM,"CN(C)Cc1nc(Nc2ccc(-c3cnc4cc(F)ccn34)c3c2C(=O)NC3)ccc1C1(F)CCOCC1 [I-834, 7-((6-((dimethylamino)-methyl)-5-(4-fluorotetrahy-dro-2H-pyran-4-yl)pyridin-2-yl)amino)-4-(7-fluoroimidazo [1,2-a]pyridin-3-yl)isoindolin-1-one]"
6,< 0.1 µM,"CN(C)CCc1nc(Nc2ccc(-c3cnc4cc(F)ccn34)c3c2C(=O)NC3)ccc1C1CCOCC1 [I-838, 7-((6-(2-(dimethylami-no)ethyl)-5-(tetrahydro-2H-pyran-4-yl)pyridin-2-yl)amino)-4-(7-fluoroimidazo [1,2-a]pyridin-3-yl)isoindolin-1-one]"
7,< 0.1 µM,"CN(C)Cc1nc(Nc2cnc(-c3ccnc4c3ccn4C)c3c2C(=O)NC3)ccc1N1CCOC2(CC2)C1 [I-839, 7-((6-((dimethylamino)-methyl)-5-(4-oxa-7-azaspiro[2.5]octan-7-yl)pyridin-2-yl)amino)-4-(1-methyl-1H-pyrrolo[2,3-b]pyridin-4-yl)-2,3-dihydro-1H-pyrrolo[3,4-c]pyridin-1-one]"
8,0.1 to 1 µM,"CN(C)[C@H]1CCCc2ccc(Nc3ccc(-c4cnc5cc(F)ccn45)c4c3C(=O)NC4)nc21 [I-841, (S)-7-((8-(dimethylam-ino)-5,6.7,8-tetrahydroquin-olin-2-yl)amino)-4-(7-fluoroimidazo [1,2-a]pyridin-3-yl)isoindolin-1-one]"
9,< 0.1 µM,"CN(C)Cc1nc(Nc2cnc(-c3ccnc4c3ccn4C)c3c2C(=O)NC3)ccc1C1CCOCC1 [I-845, 7-[[6-[(dimethylamino)-methyl]-5-tetrahydropyran-4-yl-2-pyridyl]amino]-4-[l-methylpyrrolo [2,3-b]pyridin-4-yl)-2,3-dihydropyrrolo [3,4-c]pyridin-1-one Formic acid salt]"
10,< 0.1 µM,"CC(C)NCc1nc(Nc2ccc(-c3cnc4cc(F)ccn34)c3c2C(=O)NC3)ccc1C1CCOCC1 [I-847, 4-(7-fluoroimidazo [1,2-a]pyridin-3-yl)-7-[[6-[(isopropylamino)-methyl]-5-tetrahydropyran-4-yl-2-pyridyl]amino] isoindolin-1-one Formic acid salt]"
11,< 0.1 µM,"CC(C)(C)NCc1nc(Nc2ccc(-c3cnc4cc(F)ccn34)c3c2C(=O)NC3)ccc1C1CCOC1 (stereo not drawn) [I-848, 7-[[6-[(tert-butylamino)methyl]-5-tetrahydrofuran-3-yl-2-pyridyl]amino]-4-(7-fluoroimidazo [1,2-a]pyridin-3-yl)isoindolin-1-one]"
12,< 0.1 µM,"O=C1NCc2c(-c3cnc4cc(F)ccn34)ccc(Nc3ccc(C4CCOC4)c(CNCC4CC4)n3)c21 (stereo not drawn) [I-849, 7-[[6-[(cyclopropylmethylamino)methyl]-5-tetrahydrofuran-3-yl-2-pyridyl]amino]-4-(7-fluoroimidazo [1,2-a]pyridin-3-yl)isoindolin-1-one Formic acid salt]"
13,< 0.1 µM,"CN(C)Cc1nc(Nc2ccc(-c3cnc4cnccn34)c3c2C(=O)NC3)ccc1C1CCOCC1 [I-850, 7-[[6-[(dimethylami-no)methyl]-5-tetrahydropyran-4-yl-2-pyridyl]amino]-4-imidazo[1,2-a]pyrazin-3-yl-isoindolin-1-one]"
